Experimental data: EP2663342B1, “STABLE HYDROGEL COMPOSITIONS INCLUDING PHENYLEPHRINE” (ALLERGAN, INC., priority 2011, dated 2012)
Values belong to the compound of their own block, whether it stands above or below them.

What was measured:
Format in all cases: physicochemical
[1] = Extrusion force of HA-based gel at 3 years equivalent at room temperature
Procedure: (§1) The hydrogel properties, aspect (i.e., color/clarity/homogeneity), and extrusion force were analyzed after autoclaving and at 3 years equivalent at room temperature.

[2] = Extrusion force of HA-based gel after autoclaving; conditions: ΔF vs HA gel without the added ingredients
Source text: Stability of a hydrogel composition disclosed herein can be determined by subjecting a hydrogel composition to a heat treatment, such as, e.g., steam sterilization at normal pressure or under pressure (e.g., autoclaving). […] Substantial stability of a hydrogel composition disclosed herein can be evaluated 1) by determining the change in the extrusion force (ΔF) of a hydrogel composition disclosed herein after sterilization, where the change in extrusion force less 2N is indicative of a substantially stable hydrogel composition as measured by (the extrusion force of a hydrogel composition with the specified additives) minus (the extrusion force of the a hydrogel composition without the added additives); and/or 2) by determining the change in rheological properties of a hydrogel composition disclosed herein after sterilization, where the change in tan δ 1 Hz of less than 0.1 is indicative of a substantially stable hydrogel composition as measured by (tan δ 1 Hz of gel formulation with additives) minus (tan δ 1 Hz of gel formulation without additives). As such, a substantially stable hydrogel composition disclosed herein retains one or more of the following characteristics after sterilization: homogeneousness, extrusion force, cohesiveness, hyaluronan concentration, agent(s) concentration, osmolarity, pH, or other rheological characteristics desired by the hydrogel before the heat treatment.
as §1

[3] = Aspect (color/clarity/homogeneity) of HA-based gel after autoclaving; conditions: for Aspect: after autoclaving and at 3 years equivalent at room temperature
Procedure: The active ingredient was incorporated into a HA-based gel matrix and autoclaved by steam sterilization at a temperature between about 130 °C to about 135 °C for between about one minute and about 10 minutes. The hydrogel properties, aspect (i.e., color/clarity/homogeneity), and extrusion force were analyzed after autoclaving and at 3 years equivalent at room temperature. All formulations were clear, homogenous, uncolored, and had acceptable extrusion force properties after autoclaving and at the 3-year equivalent mark (Table 3).
Ascorbic acid, at a concentration of 1% (w/w) was, incorporated in a HA-based gel matrix, and the pH of the gel adjusted to about 7 and then autoclaved by steam sterilization at a temperature between about 130 °C to about 135 °C for between about one minute and about 10 minutes.

[4] = as above
[5] = Oxidation testing: degradation by free radicals (H2O2) on a rheometer; conditions: gel with AA2G and lidocaine versus gel with lidocaine
Source text: The effect of ascorbic acid 2-glucoside (AA2G™) on HA-based gel matrix oxidative degradation was studied. Oxidation testing was used as it allows testing of the resistance of a HA-based gel matrix to free radicals. Degradation by free radicals was simulated on a rheometer (Haake Rheostress 600) by addition of 1/7 ratio of H2O2 30% on the surface of a spread gel measured with a controlled stress rheometer according to the following method: frequency of 1 Hz with 0.8% controlled strain, during 3600 s at 35 °C. The time value is taken at 5 Pa/s.

[6] = ingredient at 0.3 % in HA-based gel matrix
[7] = ingredient at 0.5 % in HA-based gel matrix
[8] = ingredient at 1 % in HA-based gel matrix

Compound: NC(=O)NC1NC(=O)NC1=O (stereo not drawn) [Allantoin]
Extrusion force (N) 3 years ∼ room T °C [1, 6]: PASSED (the change of extrusion force (ΔF) was less than two Newtons (< 2 N))
Extrusion force (N) 3 years ∼ room T °C [1, 7]: PASSED (the change of extrusion force (ΔF) was less than two Newtons (< 2 N))
Extrusion force (N) after autoclaving [2, 6]: PASSED (the change of extrusion force (ΔF) was less than two Newtons (< 2 N))
Extrusion force (N) after autoclaving [2, 7]: PASSED (the change of extrusion force (ΔF) was less than two Newtons (< 2 N))

Compound: Cc1cc(=O)n(-c2ccccc2)n1C [Antipyrin, reference compound]
Aspect [3, 7]: Clear Homogeneous Uncolored
Aspect [3, 8]: Clear Homogeneous Uncolored
Extrusion force (N) 3 years ∼ room T °C [1, 7]: PASSED (the change of extrusion force (ΔF) was less than two Newtons (< 2 N))
Extrusion force (N) 3 years ∼ room T °C [1, 8]: PASSED (the change of extrusion force (ΔF) was less than two Newtons (< 2 N))
Extrusion force (N) after autoclaving [2, 7]: PASSED (the change of extrusion force (ΔF) was less than two Newtons (< 2 N))
Extrusion force (N) after autoclaving [2, 8]: PASSED (the change of extrusion force (ΔF) was less than two Newtons (< 2 N))

Compound: O=C1O[C@H]([C@@H](O)CO)C(O)=C1O[C@H]1O[C@H](CO)[C@@H](O)[C@H](O)[C@H]1O [Ascorbic acid 2-Glucoside]
aspect of gel after autoclaving ([4]; 0.6% (w/w), 1% (w/w), or 2% (w/w) AA2G in HA-based gel matrix, pH about 7, same before autoclaving): clear and uncolored
protected against oxidative degradation by a factor [5]: 3

Compound: O=C1O[C@H]([C@@H](O)CO)C(O)=C1O [Ascorbic acid, (5R)-[(1S)-1,2-dihydroxyethyl]-3,4-dihydroxyfuran-2(5H)-one]
aspect of gel after autoclaving ([3]; 1% (w/w) in HA-based gel matrix, pH about 7, clear and uncolored before autoclaving): clear but yellowed

Compound: Nc1ccn([C@@H]2O[C@H](CO)[C@@H](O)[C@H]2O)c(=O)n1 [Cytidine]
Extrusion force (N) 3 years ∼ room T °C [1, 7]: PASSED (the change of extrusion force (ΔF) was less than two Newtons (< 2 N))
Extrusion force (N) 3 years ∼ room T °C [1, 8]: PASSED (the change of extrusion force (ΔF) was less than two Newtons (< 2 N))
Extrusion force (N) after autoclaving [2, 7]: PASSED (the change of extrusion force (ΔF) was less than two Newtons (< 2 N))
Extrusion force (N) after autoclaving [2, 8]: PASSED (the change of extrusion force (ΔF) was less than two Newtons (< 2 N))

Compound: CC(C)(CO)[C@@H](O)C(=O)NCCCO [Dexpanthenol]
aspect of gel after autoclaving ([4]; 1% (w/w) in HA-based gel matrix comprising 0.3% (w/w) lidocaine, same before autoclaving): clear and uncolored

Compound: CNC[C@H](O)c1ccc(O)c(O)c1 [Epinephrine bitartrate]
aspect of gel after autoclaving ([4]; 10 ppm in HA-based gel matrix comprising 0.3% (w/w) lidocaine, clear and uncolored before autoclaving): clear but colored
aspect of gel after autoclaving ([4]; 10 ppm in HA-based gel matrix, same before autoclaving): clear and uncolored
aspect of gel after autoclaving ([4]; 20 ppm in HA-based gel matrix comprising 0.3% (w/w) lidocaine and 4.5% (w/w) mannitol, clear and uncolored before autoclaving): slightly colored

Compound: CC12CCC(CC1)C(C)(C)O2 [Eucalyptol]
Extrusion force (N) 3 years ∼ room T °C [1, 7]: PASSED (the change of extrusion force (ΔF) was less than two Newtons (< 2 N))
Extrusion force (N) after autoclaving [2, 7]: PASSED (the change of extrusion force (ΔF) was less than two Newtons (< 2 N))

Compound: OCC(O)CO [Glycerin]
Extrusion force (N) 3 years ∼ room T °C [1, 7]: PASSED (the change of extrusion force (ΔF) was less than two Newtons (< 2 N))
Extrusion force (N) after autoclaving [2, 7]: PASSED (the change of extrusion force (ΔF) was less than two Newtons (< 2 N))

Compound: Cc1c(C)c2c(c(C)c1OP(=O)([O-])[O-])CCC(C)(CCCC(C)CCCC(C)CCCC(C)C)O2.[Na+].[Na+] (stereo not drawn) [Sodium Tocopheryl Phosphate]
aspect of gel after autoclaving ([4]; 0.4% (w/w) or 1.2% (w/w) in HA-based gel matrix): unclear and white

Compound: CNCC(O)c1ccc(O)cc1 (stereo not drawn) [Synephrine, 4-[1-hydroxy-2-(methylamino)ethyl]phenol]
aspect of gel after autoclaving ([4]; 100 ppm synephrine in HA-based gel matrix comprising 0.3% (w/w) lidocaine, same before autoclaving): clear and uncolored

Compound: Cc1cn([C@H]2C[C@H](O)[C@@H](CO)O2)c(=O)[nH]c1=O [Thymidine]
Extrusion force (N) 3 years ∼ room T °C [1, 7]: PASSED (the change of extrusion force (ΔF) was less than two Newtons (< 2 N))
Extrusion force (N) 3 years ∼ room T °C [1, 8]: PASSED (the change of extrusion force (ΔF) was less than two Newtons (< 2 N))
Extrusion force (N) after autoclaving [2, 7]: PASSED (the change of extrusion force (ΔF) was less than two Newtons (< 2 N))
Extrusion force (N) after autoclaving [2, 8]: PASSED (the change of extrusion force (ΔF) was less than two Newtons (< 2 N))

Further lines, with some results ahead:

aspect of gel after autoclaving ([4]; 10 ppm in HA-based gel matrix with 0.9% (w/w) mannitol): slightly colored
aspect of gel after autoclaving ([4]; 10 ppm in HA-based gel matrix with 4.5% (w/w) mannitol, same before autoclaving): clear and uncolored
Compound: CNC[C@H](O)c1ccc(O)c(O)c1 [Epinephrine, (R)-4-(1-hydroxy-2-(methylamino)ethyl)benzene-1,2-diol]

aspect of gel after autoclaving ([4]; 0.6% (w/w), 1% (w/w) or 2% (w/w) MAP in HA-based gel matrix, pH about 7, same before autoclaving): clear and uncolored
Compound: O=C1O[C@H]([C@@H](O)CO)C([O-])=C1OP(=O)([O-])[O-].O=C1O[C@H]([C@@H](O)CO)C([O-])=C1OP(=O)([O-])[O-].[Mg+2].[Mg+2].[Mg+2] [Magnesium Ascorbyl Phosphate]

aspect of gel after autoclaving ([4]; 100 ppm naphazoline in HA-based gel matrix comprising 0.3% (w/w) lidocaine, same before autoclaving): clear and uncolored
Compound: c1ccc2c(CC3=NCCN3)cccc2c1 [Naphazoline, 2-(1-naphthylmethyl)-2-imidazoline]

aspect of gels after autoclaving ([4]; 100 ppm or 400ppm phenylephrine in HA-based gel matrixes comprising 0.3% (w/w) lidocaine, same before autoclaving): clear and uncolored
Compound: CNC[C@H](O)c1cccc(O)c1 [Phenylephrine, (R)-3-[-1-hydroxy-2-(methylamino)ethyl]phenol]

aspect of gel after autoclaving ([4]; 0.6% (w/w), 1% (w/w), or 2% (w/w) SAP in HA-based gel matrix, pH about 7, same before autoclaving): clear and uncolored
Compound: O=C1O[C@H]([C@@H](O)CO)C([O-])=C1OP(=O)([O-])[O-].[Na+].[Na+].[Na+] [Sodium Ascorbyl Phosphate]

aspect of gel after autoclaving ([4]; 0.5% (w/w) or 1.2% (w/w) in HA-based gel matrix): unclear and white
Compound: CC(=O)Oc1c(C)c(C)c2c(c1C)CCC(C)(CCC[C@H](C)CCC[C@H](C)CCCC(C)C)O2 (stereo partly drawn) [Tocopheryl Acetate]

aspect of gel after autoclaving ([4]; 0.4% (w/w) tranexamic acid in HA-based gel matrix comprising 0.3% (w/w) lidocaine, same before autoclaving): clear and uncolored
Compound: NC[C@H]1CC[C@H](C(=O)O)CC1 [Tranexamic acid, reference compound]
Extrusion force (N) 3 years ∼ room T °C [1, 7]: PASSED (the change of extrusion force (ΔF) was less than two Newtons (< 2 N))
Extrusion force (N) after autoclaving [2, 7]: PASSED (the change of extrusion force (ΔF) was less than two Newtons (< 2 N))

Aspect [3, 7]: Clear Homogeneous Uncolored
Aspect [3, 8]: Clear Homogeneous Uncolored
Compound: O=c1ccn([C@@H]2O[C@H](CO)[C@@H](O)[C@H]2O)c(=O)[nH]1 [Uridine]
Extrusion force (N) 3 years ∼ room T °C [1, 7]: PASSED (the change of extrusion force (ΔF) was less than two Newtons (< 2 N))
Extrusion force (N) 3 years ∼ room T °C [1, 8]: PASSED (the change of extrusion force (ΔF) was less than two Newtons (< 2 N))
Extrusion force (N) after autoclaving [2, 7]: PASSED (the change of extrusion force (ΔF) was less than two Newtons (< 2 N))
Extrusion force (N) after autoclaving [2, 8]: PASSED (the change of extrusion force (ΔF) was less than two Newtons (< 2 N))

aspect of gel after autoclaving ([4]; 0.7% (w/w) in HA-based gel matrix): clear, but heterogeneous
Compound: Polyoxyethanyl-α-tocopheryl sebacate
